From ChEMBL document CHEMBL3352660, “Design, synthesis and pharmacological evaluation of novel polycyclic heteroarene ethers as PDE10A inhibitors: part II” (Bioorg Med Chem Lett, 2014) come the findings set out here.

Data set [1] has as its system Rattus norvegicus. Briefly: Antipsychotic activity in Sprague-Dawley rat […] assessed as reversal of MK-801-induced stereotypy at 3 mg/kg, ip administered 2 hrs prior to MK-801 challenge measured every 5 mins for 1 hr starting 15 mins post MK-801 injection relative to vehicle-treated control. Type of data set: functional. As to conditions: route intraperitoneal.

Data set [2] concerns Rattus norvegicus. In words: Antipsychotic activity in Sprague-Dawley rat […] assessed as reversal of MK-801-induced locomotion at 3 mg/kg, ip administered 2 hrs prior to MK-801 challenge measured every 5 mins for 1 hr starting 15 mins post MK-801 injection relative to vehicle-treated control. To be noted: route intraperitoneal. The class given is functional.

Data set [3] deals with Rattus norvegicus. Briefly: Antipsychotic activity in Sprague-Dawley rat conditioned avoidance response model assessed as avoidance of shock at 3 mg/kg, ip measured after 30 mins relative to vehicle-treated control. To be noted: route intraperitoneal. The class given is functional.
In data set [4] the test system is Rattus norvegicus. Briefly: Antipsychotic activity in Sprague-Dawley rat […] assessed as reversal of MK-801-induced ataxia at 3 mg/kg, ip administered 2 hrs prior to MK-801 challenge measured every 5 mins for 1 hr starting 15 mins post MK-801 injection relative to vehicle-treated control. Type of data set: functional. As to conditions: route intraperitoneal.

The subject of data set [5] is Rattus norvegicus. In words: Antipsychotic activity in Sprague-Dawley rat prepulse inhibition deficit model assessed as reversal of MK-801-induced effect at 1 mg/kg, ip administered 20 mins prior to MK-801 challenge relative to vehicle-treated control. The class given is functional. Also on record: scale not given: the % may be the effect or the level left. As to conditions: route intraperitoneal.

For data set [6], the target named is cGMP-dependent 3',5'-cyclic phosphodiesterase (Homo sapiens) (UniProt O00408). Briefly: Inhibition of human recombinant PDE2A using cAMP as substrate at 10 uM after 30 mins by HTRF method. Background: TR-FRET usually uses a lanthanide donor and a delayed reading to cut background.
cGMP-dependent 3',5'-cyclic phosphodiesterase (Homo sapiens), sequence (O00408 whole entry): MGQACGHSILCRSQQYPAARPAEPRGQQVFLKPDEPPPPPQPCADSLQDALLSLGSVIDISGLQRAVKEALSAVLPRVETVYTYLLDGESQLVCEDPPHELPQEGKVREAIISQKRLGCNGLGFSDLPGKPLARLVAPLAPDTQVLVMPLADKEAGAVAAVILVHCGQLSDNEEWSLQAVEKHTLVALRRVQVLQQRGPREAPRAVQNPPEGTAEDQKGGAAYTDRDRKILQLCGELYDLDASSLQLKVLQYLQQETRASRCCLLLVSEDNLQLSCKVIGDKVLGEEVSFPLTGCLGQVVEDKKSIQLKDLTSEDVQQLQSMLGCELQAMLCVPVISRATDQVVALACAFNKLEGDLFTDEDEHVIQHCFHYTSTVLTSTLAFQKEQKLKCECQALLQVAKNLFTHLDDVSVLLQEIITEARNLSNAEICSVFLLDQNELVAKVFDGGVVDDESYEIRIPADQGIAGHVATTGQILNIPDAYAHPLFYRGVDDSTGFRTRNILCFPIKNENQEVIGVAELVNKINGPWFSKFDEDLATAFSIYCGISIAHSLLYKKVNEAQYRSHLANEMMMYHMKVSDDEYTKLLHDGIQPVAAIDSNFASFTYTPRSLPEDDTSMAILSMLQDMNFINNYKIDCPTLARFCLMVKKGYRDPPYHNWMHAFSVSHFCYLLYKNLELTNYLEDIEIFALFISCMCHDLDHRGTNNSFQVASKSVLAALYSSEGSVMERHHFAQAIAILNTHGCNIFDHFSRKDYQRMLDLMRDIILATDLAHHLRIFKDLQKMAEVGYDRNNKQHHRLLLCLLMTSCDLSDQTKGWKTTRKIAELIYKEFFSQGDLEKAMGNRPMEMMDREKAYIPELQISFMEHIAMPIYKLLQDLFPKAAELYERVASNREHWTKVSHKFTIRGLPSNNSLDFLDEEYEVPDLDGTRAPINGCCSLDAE
The nature of data set [7]: Metabolic stability in Beagle dog liver microsomes incubated for 10 mins prior to NADPH addition measured after 60 mins by LC/MS/MS analysis. Type of data set: ADME, Canis lupus familiaris. As to conditions: read-out: Stability. In general terms: Liver microsomes are a subcellular fraction often used to study metabolism.
Data set [8] addresses T1, cAMP and cAMP-inhibited cGMP 3',5'-cyclic phosphodiesterase 10A (Homo sapiens, UniProt Q9Y233). Briefly: Inhibition of human recombinant GST-tagged PDE10A using [3H]-cAMP as substrate after 30 mins by scintillation proximity assay. (In general: Scintillation proximity formats need no separation of bound from free tracer.)
Data set [9] addresses cGMP-inhibited 3',5'-cyclic phosphodiesterase 3A (Homo sapiens) (UniProt Q14432). Briefly: Inhibition of human recombinant PDE3A using cAMP as substrate at 10 uM after 30 mins by HTRF method.
Data set [10] is described as follows: Metabolic stability in cynomolgus monkey liver microsomes incubated for 10 mins prior to NADPH addition measured after 60 mins by LC/MS/MS analysis. The class given is ADME, Macaca fascicularis. To be noted: read-out: Stability.
Data set [11] can be described thus: Metabolic stability in Wistar rat liver microsomes incubated for 10 mins prior to NADPH addition measured after 60 mins by LC/MS/MS analysis. The class given is ADME. To be noted: read-out: Stability.
In data set [12] the target is T1, cAMP and cAMP-inhibited cGMP 3',5'-cyclic phosphodiesterase 10A. Briefly: Inhibition of human recombinant GST-tagged PDE10A using [3H]-cAMP as substrate at 1 uM after 30 mins by scintillation proximity assay.
Data set [13] can be described thus: Metabolic stability in CD1 mouse liver microsomes incubated for 10 mins prior to NADPH addition measured after 60 mins by LC/MS/MS analysis. Type of data set: ADME. To be noted: read-out: Stability.
Data set [14] concerns the target 3',5'-cyclic-AMP phosphodiesterase 4D (Homo sapiens) (UniProt Q08499). In words: Inhibition of human recombinant PDE4D using [3H]-cAMP as substrate at 1 uM after 30 mins by two-step radiometric assay.
The target of data set [15] is Dual 3',5'-cyclic-AMP and -GMP phosphodiesterase 11A (Homo sapiens) (UniProt Q9HCR9). Briefly: Inhibition of human recombinant PDE11A using [3H]-cAMP as substrate at 1 uM after 30 mins by two-step radiometric assay.
Dual 3',5'-cyclic-AMP and -GMP phosphodiesterase 11A (Homo sapiens), sequence (Q9HCR9 whole entry, looked up): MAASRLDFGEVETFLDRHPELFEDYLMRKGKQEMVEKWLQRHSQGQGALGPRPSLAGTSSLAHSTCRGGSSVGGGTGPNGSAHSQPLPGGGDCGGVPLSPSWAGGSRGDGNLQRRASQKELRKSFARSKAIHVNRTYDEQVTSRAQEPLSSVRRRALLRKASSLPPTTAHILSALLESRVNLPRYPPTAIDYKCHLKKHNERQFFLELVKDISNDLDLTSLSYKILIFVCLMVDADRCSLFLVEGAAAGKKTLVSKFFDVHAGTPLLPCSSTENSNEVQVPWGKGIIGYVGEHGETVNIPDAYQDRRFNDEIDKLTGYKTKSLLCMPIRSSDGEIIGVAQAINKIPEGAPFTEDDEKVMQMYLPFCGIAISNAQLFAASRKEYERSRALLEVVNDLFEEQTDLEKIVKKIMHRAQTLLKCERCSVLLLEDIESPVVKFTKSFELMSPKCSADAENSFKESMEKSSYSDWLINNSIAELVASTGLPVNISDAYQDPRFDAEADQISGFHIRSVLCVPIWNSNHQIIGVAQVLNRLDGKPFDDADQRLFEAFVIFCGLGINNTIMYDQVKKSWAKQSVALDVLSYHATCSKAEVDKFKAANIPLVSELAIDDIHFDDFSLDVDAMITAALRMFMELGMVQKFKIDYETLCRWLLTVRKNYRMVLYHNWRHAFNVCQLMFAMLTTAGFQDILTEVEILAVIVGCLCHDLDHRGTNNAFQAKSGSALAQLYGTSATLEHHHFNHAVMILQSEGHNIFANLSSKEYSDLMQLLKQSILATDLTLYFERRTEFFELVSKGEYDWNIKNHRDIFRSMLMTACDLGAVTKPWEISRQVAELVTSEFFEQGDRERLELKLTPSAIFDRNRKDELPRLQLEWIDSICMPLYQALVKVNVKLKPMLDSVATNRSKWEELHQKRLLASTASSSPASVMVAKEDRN
Data set [16] has as its target cGMP-specific 3',5'-cyclic phosphodiesterase (Homo sapiens) (UniProt O76074). In words: Inhibition of human recombinant PDE5A using […] as substrate at 10 uM after 30 mins by scintillation proximity assay.
The target of data set [17] is Dual 3',5'-cyclic-AMP and -GMP phosphodiesterase 11A (Homo sapiens) (UniProt Q9HCR9). Briefly: Inhibition of human recombinant PDE11A using [3H]-cAMP as substrate at 10 uM after 30 mins by two-step radiometric assay.
Data set [18] deals with cGMP-specific 3',5'-cyclic phosphodiesterase (Homo sapiens) (UniProt O76074). Briefly: Inhibition of human recombinant PDE5A using […] as substrate at 1 uM after 30 mins by scintillation proximity assay.
Data set [19] concerns the target T2, cAMP and cAMP-inhibited cGMP 3',5'-cyclic phosphodiesterase 10A (Rattus norvegicus, UniProt Q9QYJ6).
T2 sequence (Q9QYJ6 whole entry): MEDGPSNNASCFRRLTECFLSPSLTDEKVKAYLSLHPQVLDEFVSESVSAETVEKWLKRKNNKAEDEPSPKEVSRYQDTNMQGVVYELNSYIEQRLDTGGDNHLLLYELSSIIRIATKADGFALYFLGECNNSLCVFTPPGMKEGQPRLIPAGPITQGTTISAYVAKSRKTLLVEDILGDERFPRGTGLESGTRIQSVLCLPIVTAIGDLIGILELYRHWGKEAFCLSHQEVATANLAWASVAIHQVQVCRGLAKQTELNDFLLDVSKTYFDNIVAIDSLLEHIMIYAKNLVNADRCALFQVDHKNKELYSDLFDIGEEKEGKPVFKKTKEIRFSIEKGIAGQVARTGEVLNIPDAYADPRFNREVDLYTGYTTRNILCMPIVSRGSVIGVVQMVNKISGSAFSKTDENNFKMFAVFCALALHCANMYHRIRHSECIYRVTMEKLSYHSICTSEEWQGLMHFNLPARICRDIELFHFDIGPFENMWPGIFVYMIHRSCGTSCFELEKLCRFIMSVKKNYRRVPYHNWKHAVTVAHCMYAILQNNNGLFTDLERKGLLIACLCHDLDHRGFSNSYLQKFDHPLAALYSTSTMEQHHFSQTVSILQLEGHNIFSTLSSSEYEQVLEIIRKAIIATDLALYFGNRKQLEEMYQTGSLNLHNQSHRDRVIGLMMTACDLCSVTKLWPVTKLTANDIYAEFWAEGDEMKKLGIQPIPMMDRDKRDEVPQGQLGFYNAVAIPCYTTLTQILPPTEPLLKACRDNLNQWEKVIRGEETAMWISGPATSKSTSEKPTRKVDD
Briefly: Inhibition of rat recombinant GST-tagged PDE10A using [3H]-cAMP as substrate by scintillation proximity assay.

Data set [20] addresses T3, cAMP and cAMP-inhibited cGMP 3',5'-cyclic phosphodiesterase 10A (Mus musculus, UniProt Q8CA95).
T3 sequence (Q8CA95 whole entry): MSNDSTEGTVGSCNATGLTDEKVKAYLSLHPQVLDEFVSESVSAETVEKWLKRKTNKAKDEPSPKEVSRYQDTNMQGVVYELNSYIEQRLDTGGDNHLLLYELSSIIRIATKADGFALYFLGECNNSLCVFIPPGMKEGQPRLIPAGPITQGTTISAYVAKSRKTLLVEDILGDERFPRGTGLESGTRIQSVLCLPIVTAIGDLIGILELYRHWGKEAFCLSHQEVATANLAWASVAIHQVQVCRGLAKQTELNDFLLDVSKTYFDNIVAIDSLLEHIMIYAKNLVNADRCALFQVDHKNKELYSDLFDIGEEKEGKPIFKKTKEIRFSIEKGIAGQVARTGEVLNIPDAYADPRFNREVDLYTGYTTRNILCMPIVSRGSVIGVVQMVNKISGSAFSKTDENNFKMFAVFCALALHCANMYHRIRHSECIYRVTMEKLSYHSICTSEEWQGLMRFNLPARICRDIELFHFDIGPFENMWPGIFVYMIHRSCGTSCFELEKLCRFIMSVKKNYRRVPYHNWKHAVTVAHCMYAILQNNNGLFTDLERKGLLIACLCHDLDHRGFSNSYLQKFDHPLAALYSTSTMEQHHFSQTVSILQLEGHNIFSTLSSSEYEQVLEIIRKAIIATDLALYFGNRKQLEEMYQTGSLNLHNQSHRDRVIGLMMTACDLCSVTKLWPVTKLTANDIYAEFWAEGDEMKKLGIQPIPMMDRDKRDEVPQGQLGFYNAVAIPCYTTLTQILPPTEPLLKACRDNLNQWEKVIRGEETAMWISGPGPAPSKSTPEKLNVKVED
Briefly: Inhibition of mouse recombinant GST-tagged PDE10A using [3H]-cAMP as substrate after 30 mins by scintillation proximity assay.

The nature of data set [21]: Metabolic stability in human liver microsomes incubated for 10 mins prior to NADPH addition measured after 60 mins by LC/MS/MS analysis. As to conditions: read-out: Stability. The class given is ADME.
Data set [22] deals with cGMP-dependent 3',5'-cyclic phosphodiesterase (Homo sapiens) (UniProt O00408). Briefly: Inhibition of human recombinant PDE2A using cAMP as substrate at 1 uM after 30 mins by HTRF method.
The target of data set [23] is 3',5'-cyclic-AMP phosphodiesterase 4D (Homo sapiens) (UniProt Q08499). In words: Inhibition of human recombinant PDE4D using [3H]-cAMP as substrate at 10 uM after 30 mins by two-step radiometric assay.
3',5'-cyclic-AMP phosphodiesterase 4D (Homo sapiens), sequence (Q08499 whole entry): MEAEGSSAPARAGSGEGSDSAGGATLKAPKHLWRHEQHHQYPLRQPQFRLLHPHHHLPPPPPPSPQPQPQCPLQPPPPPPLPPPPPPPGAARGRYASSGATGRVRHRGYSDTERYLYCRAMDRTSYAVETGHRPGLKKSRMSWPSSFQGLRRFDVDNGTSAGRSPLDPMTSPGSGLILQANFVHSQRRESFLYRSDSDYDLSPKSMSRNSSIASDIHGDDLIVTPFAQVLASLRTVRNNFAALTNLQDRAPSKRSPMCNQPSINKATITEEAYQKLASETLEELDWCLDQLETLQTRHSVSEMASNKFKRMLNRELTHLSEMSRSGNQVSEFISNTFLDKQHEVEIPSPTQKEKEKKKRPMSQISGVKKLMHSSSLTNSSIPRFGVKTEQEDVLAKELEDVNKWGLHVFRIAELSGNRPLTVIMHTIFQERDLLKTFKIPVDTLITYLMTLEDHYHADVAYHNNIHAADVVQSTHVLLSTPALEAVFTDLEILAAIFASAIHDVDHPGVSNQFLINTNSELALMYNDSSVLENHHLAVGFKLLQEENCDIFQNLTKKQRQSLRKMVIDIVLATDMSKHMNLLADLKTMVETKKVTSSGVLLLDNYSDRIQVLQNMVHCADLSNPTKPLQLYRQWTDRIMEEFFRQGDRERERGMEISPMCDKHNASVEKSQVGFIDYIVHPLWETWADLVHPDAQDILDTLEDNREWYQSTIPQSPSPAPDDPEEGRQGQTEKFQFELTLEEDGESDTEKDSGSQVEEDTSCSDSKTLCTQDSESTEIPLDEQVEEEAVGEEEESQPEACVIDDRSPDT
Data set [24] has as its target cGMP-inhibited 3',5'-cyclic phosphodiesterase 3A (Homo sapiens) (UniProt Q14432). Briefly: Inhibition of human recombinant PDE3A using cAMP as substrate at 1 uM after 30 mins by HTRF method.
Data set [25] concerns the target High affinity 3',5'-cyclic-AMP phosphodiesterase 7A (Homo sapiens) (UniProt Q13946). Briefly: Inhibition of human recombinant PDE7A using [3H]-cAMP as substrate at 1 uM after 30 mins by two-step radiometric assay.
Data set [26] has the same target. Briefly: Inhibition of human recombinant PDE7A using [3H]-cAMP as substrate at 10 uM after 30 mins by two-step radiometric assay.

cGMP-inhibited 3',5'-cyclic phosphodiesterase 3A (Homo sapiens), sequence (Q14432 whole entry): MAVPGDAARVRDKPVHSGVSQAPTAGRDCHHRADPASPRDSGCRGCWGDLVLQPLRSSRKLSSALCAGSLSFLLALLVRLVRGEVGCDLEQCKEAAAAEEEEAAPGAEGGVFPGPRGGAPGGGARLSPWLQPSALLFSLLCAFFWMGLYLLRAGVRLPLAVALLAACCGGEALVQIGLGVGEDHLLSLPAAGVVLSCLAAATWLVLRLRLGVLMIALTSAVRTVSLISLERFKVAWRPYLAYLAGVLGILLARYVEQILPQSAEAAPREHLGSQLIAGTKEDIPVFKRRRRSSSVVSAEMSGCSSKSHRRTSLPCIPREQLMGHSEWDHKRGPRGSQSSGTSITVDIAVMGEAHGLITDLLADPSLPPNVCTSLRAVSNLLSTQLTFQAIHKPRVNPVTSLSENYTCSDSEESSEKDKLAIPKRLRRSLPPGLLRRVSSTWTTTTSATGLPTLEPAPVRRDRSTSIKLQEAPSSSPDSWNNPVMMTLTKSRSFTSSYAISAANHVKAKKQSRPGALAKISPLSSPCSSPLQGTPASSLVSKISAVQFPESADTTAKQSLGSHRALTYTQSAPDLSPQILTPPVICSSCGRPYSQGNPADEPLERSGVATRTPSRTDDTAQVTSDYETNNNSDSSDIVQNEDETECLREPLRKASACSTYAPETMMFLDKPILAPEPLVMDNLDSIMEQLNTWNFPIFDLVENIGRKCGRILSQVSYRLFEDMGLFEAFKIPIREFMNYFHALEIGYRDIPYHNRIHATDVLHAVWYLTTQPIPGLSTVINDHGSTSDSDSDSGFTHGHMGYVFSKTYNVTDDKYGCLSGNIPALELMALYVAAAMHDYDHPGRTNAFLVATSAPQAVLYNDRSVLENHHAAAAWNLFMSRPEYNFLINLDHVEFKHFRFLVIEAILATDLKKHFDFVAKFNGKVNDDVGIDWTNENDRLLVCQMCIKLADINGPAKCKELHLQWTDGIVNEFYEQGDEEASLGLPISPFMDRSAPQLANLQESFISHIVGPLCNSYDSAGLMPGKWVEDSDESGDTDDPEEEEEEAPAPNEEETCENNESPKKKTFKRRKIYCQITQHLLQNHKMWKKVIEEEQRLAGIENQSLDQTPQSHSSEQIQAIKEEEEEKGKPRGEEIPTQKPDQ
High affinity 3',5'-cyclic-AMP phosphodiesterase 7A (Homo sapiens), sequence (Q13946 whole entry): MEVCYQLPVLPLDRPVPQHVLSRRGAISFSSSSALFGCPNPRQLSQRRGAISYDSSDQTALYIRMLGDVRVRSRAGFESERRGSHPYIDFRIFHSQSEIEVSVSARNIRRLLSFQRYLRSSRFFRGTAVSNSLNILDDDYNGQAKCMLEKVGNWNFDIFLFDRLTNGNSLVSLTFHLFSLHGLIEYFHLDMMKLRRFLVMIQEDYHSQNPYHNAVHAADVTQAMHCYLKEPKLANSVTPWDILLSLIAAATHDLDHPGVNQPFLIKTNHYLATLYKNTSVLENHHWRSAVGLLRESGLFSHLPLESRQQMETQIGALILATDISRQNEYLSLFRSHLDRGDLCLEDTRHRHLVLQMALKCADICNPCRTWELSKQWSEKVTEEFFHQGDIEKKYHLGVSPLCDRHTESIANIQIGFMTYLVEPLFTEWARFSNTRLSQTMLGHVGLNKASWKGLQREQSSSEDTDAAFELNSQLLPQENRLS

On to `Cn1cc(-c2ccncc2)c(-c2ccc(OCc3ccc4ccccc4n3)cc2)n1` [MARDEPODECT], for which the Activity in [1] came out at 32%; in data set [2] it was 80%; in [3], 96%; in [4], 18%.

For the molecule `Cc1nc2n(c(=O)c1CCN1CCC(c3noc4cc(F)ccc34)CC1)CCCC2` [RISPERIDONE], the Activity in data set [5] was 67%.

Consider `Cn1cc(-c2ccc(Oc3nccnc3-c3ccncc3)cc2)c2nc3ccccc3cc21`, for which the inhibition (in general, the drop in the measured response relative to a control, in per cent) in data set [6] amounted to 34.1%; in data set [9] it was 2.5%; in data set [12], 97.2%; in data set [14], 0%; in data set [15] it was 0.8%; in [16], 19.3%. Also, the inhibition in [17] worked out at 6.8%; in [18], 9.4%; in data set [22], 5.3%; in [23], 7.6%; in data set [24], 0.8%; in [25], 4%. In addition, in data set [26], the inhibition came to 15.8%. Also, the remaining at 1 h in [7] was determined as 92%; in data set [10], 71%; in data set [11], 75%; in [13] it was 75.1%; in data set [21] it was 96%. Moreover, the IC50 (as a rule, the point on the concentration scale where inhibition reaches its midpoint) came to 8.54 nM in data set [8], 29.4 nM in data set [19] and 22.6 nM in [20].

Turning to `Cn1cc(-c2ccc(Oc3ncccc3-c3ccncc3)cc2)c2ncc(Cl)cc21`, the inhibition in data set [6] was 12.6%; in data set [9], 0%; in [12], 95.4%; in [14], 3.5%; in [15] it was 8.5%; in data set [16], 3.1%. Further, the inhibition in data set [17] came out at 3%; in [18], 2.4%; in data set [22], 12.3%; in data set [23], 6.9%; in data set [24] it was 0%; in data set [25], 10.5%. Moreover, the inhibition in [26] was found to be 17.5%. Moreover, the remaining at 1 h in data set [7] amounted to 54.7%; in data set [10] it was 54.5%; in data set [11], 64%; in data set [13] it was 67.1%; in [21], 80.9%. Further, the IC50 in data set [8] came out at 2.6 nM; in data set [19], 7.1 nM; in [20] it was 6.7 nM.

Take `Cc1cnc2c(-c3ccc(Oc4ncccc4-c4ccncc4)cc3)cn(C)c2c1`: the inhibition was 43% in [6]; 6.4% in [9]; 98.3% in data set [12]; 0% in [14]; 0.1% in [15]; 16.7% in [16]. Also, the inhibition in data set [17] worked out at 8.3%; in [18], 9.6%; in data set [22], 24.9%; in data set [23], 10.8%; in [24], 0.9%; in data set [25] it was 3.7%. In data set [26], the inhibition was 28.3%. Also, the remaining at 1 h in [7] is 32.3%; in data set [10], 13.7%; in [11] it was 46.2%; in [13], 48.1%; in data set [21] it was 62.5%. The IC50 in data set [8] is 0.3 nM; in data set [19] it was 0.8 nM; in data set [20], 1.2 nM.

Turning to `Cn1cc(-c2ccc(Oc3ncccc3-c3ccncc3)cc2)c2ncccc21`, the inhibition in data set [6] worked out at 69.6%; in data set [9] it was 7.4%; in [12], 98%; in data set [14] it was 0.9%; in [15], 3%; in data set [16], 23.2%. Besides, the inhibition came out at 29% in [17]; 2.2% in data set [18]; 16.6% in data set [22]; 18% in [23]; 0.1% in data set [24]; 5% in data set [25]. For the same molecule, the inhibition in data set [26] worked out at 39.9%. The remaining at 1 h in [7] came to 39.7%; in data set [10], 39.8%; in data set [11] it was 38.4%; in data set [13] it was 40.2%; in [21], 59.6%. Besides, the IC50 in [8] was 1.3 nM; in data set [19], 5.8 nM; in data set [20] it was 4.1 nM.
